Reference: patent publication US7097988B1 (ADVANCED RESEARCH AND TECHNOLOGY INSTITUTE, dated 2006)

Legend:
[1] = biological target: T1, mu opioid receptor (Rattus norvegicus, UniProt P33535, V245I); type: biochemical; conditions: 10 μM DAMGO
T1 construct: expressed in transfected cells

[2] = biological target: T2, rat μ opioid receptor (inhibition of adenylyl cyclase) (Rattus norvegicus, UniProt P33535, V245I)
[3] = biological target: cloned rat μ receptor (Rattus norvegicus, UniProt P33535, V245I); conditions: previously reported; cited from earlier work
[4] = biological target: T3, rat μ opioid receptor coupled to G protein-activated K+ channel (Rattus norvegicus, UniProt P33535, V245I); type: cell-based
T3 construct: A cDNA clone, MOR-1, containing the protein coding region of a rat μ opioid receptor has been described; expressed in transfected cells; host or cells: Xenopus oocytes (mRNA injection)

[5] = biological target: T4, human μ opioid receptor coupled to G protein-activated K+ channel (Homo sapiens, UniProt P35372); type: cell-based
T4 construct: Messenger RNAs encoding both proteins (Chen and Yu, 1994) were generated by in vitro transcription and injected into Xenopus oocytes; expressed in transfected cells; host or cells: Xenopus laevis oocytes (mRNA injection)

[6] = biological target: T5, μ-opioid receptor encoded by MOR-1 (inhibition of adenylyl cyclase) (Rattus norvegicus, UniProt P33535, V245I); assay: Forskolin-stimulated cAMP levels in COS-7 cells expressing MOR-1; type: cell-based; conditions: 100 nM DAGO, 10 μM forskolin, transfected cells, p<0.05
T5 construct: A 1.4-kilobase HindIII fragment encompassing the open reading frame from the cDNA encoding MOR-1 was cloned; expressed in transfected cells; host or cells: COS-7

[7] = biological target: cloned human μ receptor (Homo sapiens, UniProt P35372); assay: Saturation binding of [3H]DAMGO, COS-7 membranes expressing cloned human μ receptor (Example XII); design: the cDNA containing the open reading frame of the receptor was cloned downstream of the human cytomegalovirus promoter in the mammalian expression vector pcDNA3; expressed in transfected cells; host or cells: COS-7 (transient)
[8] = biological target: T2, rat μ opioid receptor (inhibition of adenylyl cyclase); assay: Cyclic AMP assay in transfected CHO cells, naive or chronically morphine-treated; conditions: for DAMGO/control (forskolin + DAMGO vs forskolin only cAMP): 1 μM DAMGO, 2 μM forskolin; for Intracellular cAMP level, Forskolin + DAMGO: forskolin 2 μM, DAMGO 1 μM
[9] = biological target: T6, novel member of the opioid receptor gene family (SEQ ID NO: 17) (Rattus norvegicus, UniProt P35370); type: cell-based
T6 construct: mRNA of this clone was synthesized by in vitro transcription and coinjected into Xenopus oocytes; expressed in transfected cells; host or cells: Xenopus oocytes (mRNA injection)

[10] = biological target: T7, rat μ opioid receptor (Rattus norvegicus, UniProt P33535, V245I); assay: Saturation binding of [3H]DAMGO, membranes of CHO cells stably expressing rat μ opioid receptor (Example VII)
T7 construct: A plasmid containing a 1.4 kb cDNA for the rat μ opioid receptor in a mammalian expression vector pRc/CMV has been described; expressed in transfected cells

[11] = biological target: human μ opioid receptor (Homo sapiens, UniProt P35372)
[12] = biological target: T8, mu opioid receptor / voltage-activated calcium channel (Rattus norvegicus, UniProt P33535, V245I); assay: Barium currents in Xenopus oocytes coexpressing voltage-activated calcium channel and mu opioid receptor; type: cell-based; conditions: 1 μM DAMGO for 5 min, entire activation voltage range
T8 construct: one cDNA clone contained an open reading frame of 1194 bp, encoding a protein of 398 amino acids; expressed in transfected cells; host or cells: Xenopus oocytes (plasmid microinjection)

[13] = cells treated with 1 μM morphine for 24 hours

T2 sequence (P33535 whole entry V245I): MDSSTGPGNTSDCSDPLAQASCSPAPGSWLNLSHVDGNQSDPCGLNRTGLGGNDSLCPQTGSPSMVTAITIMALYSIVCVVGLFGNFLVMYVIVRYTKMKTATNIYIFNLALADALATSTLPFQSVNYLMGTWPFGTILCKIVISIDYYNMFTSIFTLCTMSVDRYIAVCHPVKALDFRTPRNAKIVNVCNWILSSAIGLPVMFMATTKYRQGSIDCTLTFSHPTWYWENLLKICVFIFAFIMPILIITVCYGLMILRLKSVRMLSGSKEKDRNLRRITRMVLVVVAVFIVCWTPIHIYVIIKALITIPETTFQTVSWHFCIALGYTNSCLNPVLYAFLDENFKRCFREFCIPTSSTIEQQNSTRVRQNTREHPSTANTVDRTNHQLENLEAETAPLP
human μ opioid receptor, sequence (P35372 whole entry): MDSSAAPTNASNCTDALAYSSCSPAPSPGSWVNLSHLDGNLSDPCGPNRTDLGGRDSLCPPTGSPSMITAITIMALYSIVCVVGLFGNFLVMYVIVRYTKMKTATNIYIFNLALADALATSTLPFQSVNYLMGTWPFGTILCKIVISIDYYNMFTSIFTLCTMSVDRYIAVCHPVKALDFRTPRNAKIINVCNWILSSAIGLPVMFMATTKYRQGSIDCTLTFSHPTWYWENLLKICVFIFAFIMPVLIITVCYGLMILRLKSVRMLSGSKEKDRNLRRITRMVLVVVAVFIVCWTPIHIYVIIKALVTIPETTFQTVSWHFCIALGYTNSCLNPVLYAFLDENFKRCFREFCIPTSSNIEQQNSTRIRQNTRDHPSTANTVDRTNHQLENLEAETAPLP
cloned human μ receptor, sequence (P35372 whole entry): as above
T4 sequence (P35372 whole entry): as above
T6 sequence (P35370 whole entry): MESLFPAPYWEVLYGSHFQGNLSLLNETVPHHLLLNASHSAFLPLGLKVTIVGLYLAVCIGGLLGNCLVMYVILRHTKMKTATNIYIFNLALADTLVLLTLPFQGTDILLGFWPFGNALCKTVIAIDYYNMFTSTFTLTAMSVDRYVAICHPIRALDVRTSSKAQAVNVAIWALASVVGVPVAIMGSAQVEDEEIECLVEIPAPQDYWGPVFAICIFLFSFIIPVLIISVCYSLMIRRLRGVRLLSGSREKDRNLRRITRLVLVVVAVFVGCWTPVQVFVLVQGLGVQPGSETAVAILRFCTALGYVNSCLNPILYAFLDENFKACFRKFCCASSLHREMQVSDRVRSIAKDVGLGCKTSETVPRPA
cloned rat μ receptor, sequence (P33535 whole entry V245I): as the sequence (P33535 whole entry V245I) above
T1 sequence (P33535 whole entry V245I): as above
T8 sequence (P33535 whole entry V245I): as above
T7 sequence (P33535 whole entry V245I): as above
T5 sequence (P33535 whole entry V245I, the tested form may be a part): as the sequence (P33535 whole entry V245I) above
T3 sequence (P33535 whole entry V245I): as above

## C[C@@H](NC(=O)[C@@H](N)Cc1ccc(O)cc1)C(=O)NCC(=O)N(C)[C@@H](Cc1ccccc1)C(=O)NCCO [DAMGO, [D-Ala^2, N-Me-Phe^4, Gly-ol^5]-enkephalin]
[1]
  increase of GTPase activity: 30%
[2]
  inhibition: ~60%
[3]
  Bmax: 444 fmol/mg protein
[4]
  membrane current upon DAMGO exposure (in words): produced an inward membrane current
[5]
  membrane current upon receptor activation (in words): an inward current was observed
[6]
  reduction of cAMP levels from control: 18.1±2.5%
[7]
  Bmax: 232 fmol/mg
[8]
  effect on intracellular cAMP level in non-transfected parental CHO cells: had no effect
[8]; [13]
  DAMGO/control (forskolin + DAMGO vs forskolin only cAMP): 42.4%
  Intracellular cAMP level, Forskolin + DAMGO: 38.9 ± 1.4 fmol/1 × 10^3 cells
[8]; naive cells
  DAMGO/control (forskolin + DAMGO vs forskolin only cAMP): 71.9%
  Intracellular cAMP level, Forskolin + DAMGO: 25.6 ± 0.3 fmol/1 × 10^3 cells
[9]
  induction of potassium conductance (in words): no potassium conductance was induced
[10]
  Bmax: ~630 fmol/mg membrane protein
[11]
  Bmax: 381±25 fmol/mg of membrane protein
[12]
  reduction in barium currents through the calcium channel: over 80%
